Like-named read-outs stand apart in the source and are kept apart here.
What was measured:
[1] = target: T1, hCB2 receptor (Homo sapiens, UniProt P34972); test: CB2 functional assay, [35S]GTP-γ-S binding; assay type: biochemical
T1 construct: purchased ES-111-MG; host or cells: CHO membrane extracts
Procedure: (§1) A dose response curve was generated at eight concentrations in duplicate on CB1 and CB2 in light of reference agonists.
(§2) Membranes (CB1, ES-110-MG or CB2, ES-111-MG) are mixed with GDP (volume:volume) and incubated for at least […] on ice. In parallel, […] are mixed with the beads (volume:volume) just before starting the reaction. The following reagents are successively added in the wells of an Optiplate: 50 μl of ligand, 20 μl of the membranes:GDP mix, 10 μl of assay buffer for agonist testing and 20 μl of the […]: beads mix. The plates are covered with a topseal, shaken on an orbital shaker for 2 min, and then incubated between 30 to 60 min at room temperature. Then the plates are centrifuged for 10 min at 2000 rpm, incubated at room temperature between 1 to 4 hours and counted for 1 min with a PerkinElmer TopCount reader.
(§3) Functional activity for acyl hydrazone was evaluated using [^35S]GTP-γ-S assay in CHO membrane extracts expressing recombinant hCB1 receptor or hCB2 receptor. The assay relies on the binding of [^35S]GTP-γ-S, a radiolabeled nonhydrolyzable GTP analogue, to the G protein upon binding of an agonist of the G-protein-coupled receptor. In this system, agonists stimulate [^35S]GTP-γ-S binding whereas neutral antagonist have no effect and inverse agonists decrease [^35S]GTP-γ-S basal binding.
(§4) CB1 and CB2 assay data are presented as the mean of two determinations. […] For replicate determinations, the maximum variability tolerated in the test was of ±20% around the average of the replicates.

[2] = target: CB1 (Homo sapiens, UniProt P21554); test: CB1 functional assay, [35S]GTP-γ-S binding; assay type: biochemical; design: purchased ES-110-MG; host or cells: CHO membrane extracts
Sequence of CB1 (P21554 whole entry): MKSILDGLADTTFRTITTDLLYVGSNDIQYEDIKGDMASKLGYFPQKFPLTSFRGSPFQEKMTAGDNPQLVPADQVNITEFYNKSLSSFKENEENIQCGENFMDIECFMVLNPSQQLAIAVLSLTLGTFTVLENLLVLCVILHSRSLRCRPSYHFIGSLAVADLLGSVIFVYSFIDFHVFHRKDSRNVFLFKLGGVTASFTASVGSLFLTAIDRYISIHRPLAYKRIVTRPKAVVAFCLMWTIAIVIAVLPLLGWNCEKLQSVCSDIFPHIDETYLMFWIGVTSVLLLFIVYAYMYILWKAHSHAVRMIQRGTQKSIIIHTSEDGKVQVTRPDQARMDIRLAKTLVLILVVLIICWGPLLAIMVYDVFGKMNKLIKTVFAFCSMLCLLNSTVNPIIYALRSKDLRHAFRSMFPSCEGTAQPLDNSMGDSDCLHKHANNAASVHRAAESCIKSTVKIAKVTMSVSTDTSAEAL
Procedure: as §1, §2, §3, §4

[3] = target: T2, human CB1 (hCB1) receptor (Homo sapiens, UniProt P21554); test: CB1 binding assay, competitive binding of [3H]CP 55940; design: % Inhibition of Control Specific Binding CB1: concentration or dose not given beside the values; details: for % of Control Specific Binding 1st: 1st determination; for % of Control Specific Binding 2nd: 2nd determination; for inhibition at 10 µM / inhibition at 1 µM: specific binding of [3H]-CP55940; for inhibition at 1 µM: CHO membranes
T2 construct: expressed in transfected cells; host or cells: CHO (Chinese hamster ovary) cells, membranes
T2 sequence (P21554 whole entry): as above
Procedure: Cell membrane homogenates (25 μg protein) are incubated for 120 min at 37° C. with 0.5 nM [^3H]CP 55940 (the reference standard [Rinaldi-Carmona, 1996 #1320]) in the absence or presence of the test compound in a buffer containing 50 mM Tris HCl (pH 7.4), 5 mM MgCl2, 2.5 mM EDTA, and 0.3% bovine serum albumin (BSA). […]
(§5) […] [^3H]-CP55940 at a concentration of 0.5 nM and [^3H]-WIN55212 at a concentration of 0.8 nM were used as radioligands for hCB1 and hCB2 assays, respectively. The results are expressed as a percent inhibition of control specific binding. Compounds which displaced the radioligand by more than 50% for either hCB1 or hCB2 receptors were arbitrary chosen for functional activity determination.

[4] = target: T3, human CB2 (hCB2) receptor (Homo sapiens, UniProt P34972); test: CB2 binding assay, competitive binding of [3H]WIN 55212-2; details: for % Inhibition of Control Specific Binding / % of Control Specific Binding 1st / % of Control Specific Binding 2nd / % of Control Specific Binding Mean: CB2, Test Concentration 1.0E−05 (MD); for % of Control Specific Binding 1st: 1st determination; for % of Control Specific Binding 2nd: 2nd determination; for % Inhibition of Control Specific Binding CB2: Table 4, concentration not given; for inhibition at 10 µM: read-out: % inhibition hCB2 receptor, at 10 μM; for inhibition at 10 µM / inhibition at 1 µM: specific binding of [3H]-WIN55212-2; for inhibition at 1 µM: read-out: % inhibition hCB2 receptor, at 1 μM, CHO membranes
T3 construct: expressed in transfected cells; host or cells: CHO (Chinese hamster ovary) cells, membranes
T3 sequence (P34972 whole entry): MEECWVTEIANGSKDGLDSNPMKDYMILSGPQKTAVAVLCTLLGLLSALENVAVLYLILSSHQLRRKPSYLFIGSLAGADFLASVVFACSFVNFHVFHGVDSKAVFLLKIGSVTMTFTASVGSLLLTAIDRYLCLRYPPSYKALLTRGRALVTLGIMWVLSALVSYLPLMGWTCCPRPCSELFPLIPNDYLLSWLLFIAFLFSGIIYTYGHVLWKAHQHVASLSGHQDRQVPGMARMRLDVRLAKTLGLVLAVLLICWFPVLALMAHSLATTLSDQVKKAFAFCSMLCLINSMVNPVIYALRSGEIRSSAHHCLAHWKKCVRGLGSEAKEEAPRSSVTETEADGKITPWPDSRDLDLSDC
Procedure: Cell membrane homogenates (15 μg protein) are incubated for 120 min at 37° C. with 0.8 nM [^3H]WIN 55212-2 (the reference standard [Munro, 1993 #1321]) in the absence or presence of the test compound in a buffer containing 50 mM HEPES/Tris HCL (pH 7.4), 5 mM MgCl2, 2.5 mM EGTA, and 0.1% BSA. Nonspecific binding is determined in the presence of 10 μM WIN 55212-2. After being incubated, the samples are filtered rapidly under vacuum through glass fiber filters (GF/B; Packard) presoaked with 0.3% PEI and rinsed several times with ice-cold buffer containing 50 mM Tris HCl (pH 7.4) and 0.5% BSA using a 96-sample cell harvester (Unifilter; Packard). The filters are dried then counted for radioactivity in a scintillation counter (Topcount; Packard) using a scintillation cocktail (Microscint 0; Packard). The results are expressed as a percentage of the inhibition of the control radioligand-specific binding. The reference standard compounds are tested in each experiment at several concentrations to obtain a competition curve from which its IC50 is calculated.
as §5

[5] = Table 7, relative to the efficacy of CP55940
[6] = Table 9, relative to the efficacy of CP 55,940
[7] = CB1, Test Concentration 1.0E−05 (MD)
[8] = CB2 Functional Activity, read-out: EC50 (nM) for GTP Binding
[9] = Table 7, mean of two determinations, read-out: [35S]GTP-γ-S (hCB2) EC50 (nM ± SEM)
[10] = Table 7, mean of two determinations, read-out: [35S]GTP-γ-S (hCB1) EC50 (nM ± SEM)
[11] = Table 9, mean of two determinations, read-out: [35S]GTP-γ-S hCB2 EC50 (nM ± SEM)
[12] = Table 10, repeated experiment, read-out: [35S]GTP-γ-S hCB2 EC50

T1 sequence (P34972 whole entry): as above

SMILES: CCCCCCC(C)(C)c1ccc([C@@H]2C[C@H](O)CC[C@H]2CCCO)c(O)c1 [CP55,940, reference compound]
- Emax [1, 5]: 100%
- Emax [1, 6]: 100%
- Emax [2, 5]: 100%
- Emax [2, 6]: 100%

SMILES: O=C(N/N=C1\C(=O)N(CCC2CCCCC2)c2ccccc21)c1ccccc1 [Example 5, Benzoic acid [1-(2-cyclohexyl-ethyl)-2-oxo-1,2-dihydro-indol-3-ylidene]-hydrazide]
- % of Control Specific Binding 1st [3, 7]: 0.4%
- % of Control Specific Binding 2nd [3, 7]: 7.7%
- % of Control Specific Binding Mean [3, 7]: 4%
- inhibition at 10 µM [3]: 96 ± 3.7%
- % Activation Average ([1]; CB2 Functional Activity): 55.55%
- Compound Activity ([1]; CB2 Functional Activity): Agonist
- EC50 [1, 8]: 103 nM
- EC50 [1, 9]: 103 ± 1.6 nM
- Emax [1, 5]: 55.6%
- % Activation Average ([2]; CB1 Functional Activity): 56.75%
- Compound Activity ([2]; CB1 Functional Activity): Agonist
- Emax [2, 5]: 56.8%
- % Inhibition of Control Specific Binding [4]: 80%
- % of Control Specific Binding 1st [4]: 13.9%
- % of Control Specific Binding 2nd [4]: 26.4%
- % of Control Specific Binding Mean [4]: 20.2%
- % Inhibition of Control Specific Binding CB2 [4]: 80%
- inhibition at 10 µM [4]: 79.8 ± 6.3%

SMILES: CCCCCCN1C(=O)/C(=N\NC(=O)Cc2ccccc2)c2ccccc21 [Example 7, Phenylacetic acid [1-n-hexyl-2-oxo-1,2-dihydro-indol-3-ylidene]-hydrazide]
- % Inhibition of Control Specific Binding [3, 7]: 98%
- % of Control Specific Binding 1st [3, 7]: 0.9%
- % of Control Specific Binding 2nd [3, 7]: 2.6%
- % of Control Specific Binding Mean [3, 7]: 1.8%
- % Inhibition of Control Specific Binding CB1 ([3]; Table 3, concentration not given): 98%
- inhibition at 10 µM [3]: 98.2 ± 0.8%
- % Activation Average ([1]; CB2 Functional Activity): 45.79%
- Compound Activity ([1]; CB2 Functional Activity): Agonist
- EC50 [1, 8]: 189 nM
- EC50 [1, 9]: 188.7 ± 1.3 nM
- Emax [1, 5]: 45.8%
- % Activation Average ([2]; CB1 Functional Activity): 71.88%
- Compound Activity ([2]; CB1 Functional Activity): Agonist
- EC50 ([2]; CB1 Functional Activity, read-out: EC50 (nM) for GTP Binding): 459 nM
- EC50 [2, 10]: 459 ± 1.1 nM
- Emax [2, 5]: 71.9%
- % Inhibition of Control Specific Binding [4]: 92%
- % of Control Specific Binding 1st [4]: 8.4%
- % of Control Specific Binding 2nd [4]: 8.5%
- % of Control Specific Binding Mean [4]: 8.5%
- % Inhibition of Control Specific Binding CB2 [4]: 92%
- inhibition at 10 µM [4]: 91.5 ± 0.1%

SMILES: O=C(Cc1ccccc1)N/N=C1\C(=O)N(CCC2CCCCC2)c2ccccc21 [Example 10, N′-[1-(2-cyclohexylethyl)-2-oxo-1,2-dihydro-3H-indol-3-ylidene]-2-phenylacetohydrazide]
- inhibition at 10 µM [3]: 88.8 ± 0.6%
- Emax [1, 5]: 21%
- EC50 [2, 10]: 1238.8 ± 1.2 nM
- Emax [2, 5]: 75%
- inhibition at 10 µM [4]: 47.2 ± 7.7%

SMILES: CCCCCCN1C(=O)/C(=N\NC(=O)C2CCCCC2)c2ccccc21 [Example 11, N′-[(3Z)-1-hexyl-2-oxo-1,2-dihydro-3H-indol-3-ylidene]cyclohexanecarbohydrazide]
- inhibition at 1 µM [3]: 65.8 ± 0.2%
- EC50 [1, 11]: 79.1 ± 1.5 nM
- Emax [1, 6]: 58%
- Emax at 3 µM ([2]; read-out: [35S]GTP-γ-S hCB1 Emax (%), Table 9 footnote a: Efficacy determined at 3 μM, relative to CP 55,940): 40.9%
- inhibition at 1 µM [4]: 61 ± 2.1%

SMILES: CCCCCCN1C(=O)/C(=N\NC(=O)OC(C)(C)C)c2ccccc21 [Example 14, tert-butyl (2Z)-2-(1-hexyl-2-oxo-1,2-dihydro-3H-indol-3-ylidene)hydrazinecarboxylate]
- inhibition at 1 µM [3]: 85.1 ± 3.3%
- EC50 [1, 11]: 22.4 ± 1.3 nM
- Emax [1, 6]: 43.4%
- EC50 ([2]; Table 9, mean of two determinations, read-out: [35S]GTP-γ-S hCB1 EC50 (nM ± SEM)): 937.1 ± 1.2 nM
- Emax [2, 6]: 92%
- inhibition at 1 µM [4]: 82.3 ± 0.8%

SMILES: CCCN1C(=O)/C(=N\NC(=O)c2ccccc2)c2ccccc21 [Example 21, N′-[(3Z)-1-(1-propyl)-2-oxo-1,2-dihydro-3H-indol-3-ylidene]benzohydrazide]
- inhibition at 1 µM [3]: 43 ± 1.2%
- EC50 [1, 11]: 200.7 ± 1.5 nM
- Emax [1, 6]: 61.4%
- inhibition at 1 µM [4]: 32 ± 3.6%

SMILES: CCCCCCN1C(=O)/C(=N\NC(=O)c2ccccc2)c2cccc(C)c21 [Example 28, N′-[(3Z)-1-hexyl-7-methyl-2-oxo-1,2-dihydro-3H-indol-3-ylidene]benzohydrazide]
- inhibition at 1 µM [3]: 67 ± 1.6%
- EC50 [1, 11]: 84 ± 2.2 nM
- Emax [1, 6]: 34.2%
- inhibition at 1 µM [4]: 68 ± 3.7%

SMILES: CCCCCCN1C(=O)/C(=N\NC(=O)c2ccccc2)c2cccc(Cl)c21 [Example 29, N′-[(3Z)-7-chloro-1-hexyl-2-oxo-1,2-dihydro-3H-indol-3-ylidene]benzohydrazide]
- inhibition at 1 µM [3]: 60 ± 1%
- EC50 [1, 11]: 645.5 ± 1.3 nM
- Emax [1, 6]: 64.8%
- inhibition at 1 µM [4]: 29 ± 4.5%

SMILES: CCCCCCN1C(=O)/C(=N\NC(=O)c2ccccc2)c2cccc(I)c21 [Example 30, N′-[(3Z)-1-hexyl-7-iodo-2-oxo-1,2-dihydro-3H-indol-3-ylidene]benzohydrazide]
- inhibition at 1 µM [3]: 61 ± 2.5%
- Emax at 3 µM ([1]; read-out: [35S]GTP-γ-S hCB2 Emax (%), Table 9 footnote a: Efficacy determined at 3 μM, relative to CP 55,940): 55%
- inhibition at 1 µM [4]: 66 ± 3.2%

SMILES: CCCCCCN1C(=O)/C(=N\NC(=O)c2ccccc2)c2cc(F)ccc21 [Example 33, N′-[(3Z)-5-fluoro-1-hexyl-2-oxo-1,2-dihydro-3H-indol-3-ylidene]benzohydrazide]
- inhibition at 1 µM [3]: 57 ± 0.7%
- EC50 [1, 11]: 186.9 ± 1.7 nM
- Emax [1, 6]: 33.8%
- inhibition at 1 µM [4]: 46 ± 1.7%

SMILES: COc1ccc2c(c1)N(CC1CCCCC1)C(=O)/C2=N\NC(=O)c1ccccc1 [Example 37, N′-[(3Z)-1-(cyclohexylmethyl)-6-methoxy-2-oxo-1,2-dihydro-3H-indol-3-ylidene]benzohydrazide]
- Emax ([1]; Table 10, repeated experiment): -82%
- EC50 [1, 12]: 18 nM
- Emax ([2]; Table 10, repeated experiment): 40.8%
- EC50 ([2]; Table 10, repeated experiment, read-out: [35S]GTP-γ-S hCB1 EC50): 61.2 nM

SMILES: CCCCCN1C(=O)/C(=N\NC(=O)c2ccccc2)c2ccc(OC)cc21 [Example 39, N′-[(3Z)-6-methoxy-1-pentyl-2-oxo-1,2-dihydro-3H-indol-3-ylidene]benzohydrazide]
- Emax ([1]; Table 10, repeated experiment): -108%
- EC50 [1, 12]: 5.8 nM

SMILES: CCCCN1C(=O)/C(=N\NC(=O)c2ccccc2)c2ccc(OC)cc21 [Example 40, N′-[(3Z)-1-butyl-6-methoxy-2-oxo-1,2-dihydro-3H-indol-3-ylidene]benzohydrazide]
- Emax ([1]; Table 10, repeated experiment): -95%
- EC50 [1, 12]: 85 nM

SMILES: COc1ccc2c(c1)N(CCC1CCCCC1)C(=O)/C2=N\NC(=O)c1ccccc1 [Example 41, N′-[(3Z)-1-(2-cyclohexylethyl)-6-methoxy-2-oxo-1,2-dihydro-3H-indol-3-ylidene]benzohydrazide]
- Emax ([1]; Table 10, repeated experiment): -104%
- EC50 [1, 12]: 540 nM
